Source: patent US20110098352A1, “N,N-DISUBSTITUTED AMINOALKYLBIPHENYL ANTAGONISTS OF PROSTAGLANDIN D2 RECEPTORS” (AMIRA PHARMACEUTICALS, INC., priority 2008, published 2011)
pIC50: −log10 of the molar value. Read-outs that look alike come from different tables or passages of the source.

How the values were obtained:
human DP1 receptor = biological target: T1, human DP1 receptor (Homo sapiens, UniProt Q13258); experiment: DP1 radioligand membrane binding assay using [3H]BWA868C; conditions: [3H]BWA868C binding, human platelet membranes; read-out: hDP1
T1 construct: tissue Biological Specialty Corporation; host or cells: human platelets, membranes
T1 sequence (Q13258 1-359): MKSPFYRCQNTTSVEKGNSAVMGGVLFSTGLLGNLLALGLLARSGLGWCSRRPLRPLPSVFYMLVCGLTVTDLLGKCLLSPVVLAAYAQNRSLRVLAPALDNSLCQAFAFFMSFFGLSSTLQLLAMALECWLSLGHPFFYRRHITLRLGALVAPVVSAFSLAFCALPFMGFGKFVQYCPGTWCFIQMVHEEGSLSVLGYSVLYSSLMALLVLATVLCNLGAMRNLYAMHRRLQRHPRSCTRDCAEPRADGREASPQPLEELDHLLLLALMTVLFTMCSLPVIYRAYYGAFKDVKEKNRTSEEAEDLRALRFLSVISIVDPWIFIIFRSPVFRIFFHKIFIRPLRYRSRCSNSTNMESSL
Description: The ability of a compound to bind to the human DP1 receptor was evaluated via a radioligand membrane binding assay using the DP1 selective synthetic ligand [^3H]BWA868C. Packed human platelets (Biological Specialty Corporation), were resuspended in 6 volumes of Hepes/HBSS buffer (10 mM Hepes, 1 mM DTT in Hanks Balanced Salt Solution (HBSS)), lysed and centrifuged at 75,000×g to pellet the membranes. Membranes were resuspended in Hepes/HBSS buffer to approximately 12 mg protein/ml. Membranes (20 μg protein/well) are incubated in 96-well plates with 2 nM [^3H]BWA868C and test compound in Assay Buffer (50 mM Hepes, 10 mM MnCl2, 1 mM EDTA, plus or minus 0.2% human serum albumin, pH 7.4) for 60 minutes at room temperature. The reactions are terminated by rapid filtration through Whatman GF/C glass fibre filter plates. The filter plates were pre-soaked in […] polethylenimine for 30 minutes at room temperature then washed in Wash Buffer (50 mM Hepes, 0.5 M NaCl pH 7.4) prior to harvesting. After harvesting, the filter plates are washed 3 times with 1 ml cold Wash Buffer then dried. Scintillant is then added to the plates and the radioactivity retained on the filters is determined on a Packard TopCount (Perkin Elmer). Specific binding is determined as total radioactive binding minus non-specific binding in the presence of 10 μM BWA868C. IC50s were determined using GraphPad prism analysis of drug titration curves.

human DP2 receptor = biological target: T2, human DP2 receptor (Homo sapiens, UniProt Q9Y5Y4); experiment: DP2/CRTH2 radioligand binding assay using [3H]PGD2
T2 construct: expressed in transfected cells
T2 sequence (Q9Y5Y4 1-395): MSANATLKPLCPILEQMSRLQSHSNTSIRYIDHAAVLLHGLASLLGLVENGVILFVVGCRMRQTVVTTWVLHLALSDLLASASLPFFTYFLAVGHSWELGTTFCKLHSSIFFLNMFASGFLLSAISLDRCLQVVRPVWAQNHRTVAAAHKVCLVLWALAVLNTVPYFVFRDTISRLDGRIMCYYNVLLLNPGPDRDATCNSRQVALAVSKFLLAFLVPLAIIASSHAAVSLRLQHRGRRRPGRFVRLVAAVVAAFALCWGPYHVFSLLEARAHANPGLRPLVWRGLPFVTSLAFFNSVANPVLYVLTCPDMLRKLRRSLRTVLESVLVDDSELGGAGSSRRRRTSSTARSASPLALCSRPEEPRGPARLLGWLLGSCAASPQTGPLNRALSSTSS
Description: The ability of a compound to bind to the human DP2 receptor is assessed via a radioligand binding assay using [^3H]PGD2. HEK293 cells stably expressing recombinant human DP2 are resuspended in 10 mM Hepes, 7.4 containing 1 mM DTT, lysed and centrifuged at 75,000×g to pellet the membranes. The membranes are resuspended in 10 mM Hepes, 7.4 containing 1 mM DTT and 10% glycerol to approximately 5 mg protein/ml. Membranes (2-10 μg protein/well) are incubated in 96-well plates with 1 nM [^3H]PGD2 and test compound in Assay Buffer (50 mM Hepes, 10 mM MnCl2, 1 mM EDTA, plus or minus 0.2% human serum albumin, pH 7.4) for 60 minutes at room temperature. The reactions are terminated by rapid filtration through Whatman GF/C glass fibre filter plates. The filter plates were pre-soaked in 0.33% polythylenimine for 30 minutes at room temperature then washed in Wash Buffer (50 mM Hepes, 0.5 M NaCl pH 7.4) prior to harvesting. After harvesting, the filter plates are washed 3 times with 1 ml cold Wash Buffer then dried. Scintillant is then added to the plates and the radioactivity retained on the filters is determined on a Packard TopCount (Perkin Elmer). Specific binding is determined as total radioactive binding minus non-specific binding in the presence of 10 μM PGD2. IC50s were determined using GraphPad prism analysis of drug titration curves.

[1] = [3H]PGD2 binding, membranes of HEK293 cells expressing recombinant human DP2, read-out: hDP2

| SMILES | pIC50 (human DP1 receptor) | pIC50 (human DP2 receptor; [1]) | pIC50 (human DP2 receptor) |
| --- | --- | --- | --- |
| CCN(Cc1cc(C(F)(F)F)ccc1-c1cc(CC(=O)O)ccc1OC)C(=O)OCc1ccccc1 [Compound 1-28, {2′-[(Benzyloxycarbonyl-ethyl-amino)-methyl]-6-methoxy-4′-trifluoromethyl-biphenyl-3-yl}-acetic acid] | < 6.00 | – | – |
| CCN(Cc1cc(C(F)(F)F)ccc1-c1cc(CC(=O)O)ccc1OC)C(=O)C1CC1 [Compound 1-33, {2′-[(Cyclopropanecarbonyl-ethyl-amino)-methyl]-6-methoxy-4′-trifluoromethyl-biphenyl-3-yl}-acetic acid] | < 6.00 | – | > 6.52 |
| COc1ccc(CC(=O)O)cc1-c1ccc(C(F)(F)F)cc1CN(C(=O)OCc1ccccc1)C1CCC1 [Compound 1-34, {2′-[(Benzyloxycarbonyl-cyclobutyl-amino)-methyl]-6-methoxy-4′-trifluoromethyl-biphenyl-3-yl}-acetic acid] | < 6.00 | – | – |
| COc1ccc(CC(=O)O)cc1-c1ccc(C(F)(F)F)cc1CN(C(=O)OCc1ccccc1)C1CC1 [Compound 1-36, {2′-[(Benzyloxycarbonyl-cyclopropyl-amino)-methyl]-6-methoxy-4′-trifluoromethyl-biphenyl-3-yl}-acetic acid] | < 6.00 | – | – |
| COc1ccc(CC(=O)O)cc1-c1ccc(C(=O)O)cc1CN(CC(F)(F)F)C(C)=O [Compound 1-37, 2-{[Acetyl-(2,2,2-trifluoro-ethyl)-amino]-methyl}-5′-carboxymethyl-2′-methoxy-biphenyl-4-carboxylic acid] | < 6.00 | < 6.00 | – |
| CCN(Cc1cc(C(F)(F)F)ccc1-c1cc(CC(=O)O)ccc1OC)C(=O)OCc1cc(Cl)cc(Cl)c1 [Compound 1-38, (2′-{[(3,5-Dichloro-benzyloxycarbonyl)-ethyl-amino]-methyl}-6-methoxy-4′-trifluoromethyl-biphenyl-3-yl)-acetic acid] | < 6.00 | – | – |
| CCN(Cc1cc(C(F)(F)F)ccc1-c1cc(CC(=O)O)ccc1OC)C(=O)OCc1ccc(F)cc1 [Compound 1-41, (2′-{[Ethyl-(4-fluoro-benzyloxycarbonyl)-amino]-methyl}-6-methoxy-4′-trifluoromethyl-biphenyl-3-yl)-acetic acid] | < 6.00 | – | – |
| O=C(O)Cc1ccc(F)c(-c2ccc(C(F)(F)F)cc2CN(CC(F)(F)F)C(=O)OCc2ccccc2)c1 [Compound 1-49, (2′-{[Benzyloxycarbonyl-(2,2,2-trifluoro-ethyl)-amino]-methyl)-6-fluoro-4′-trifluoromethyl-biphenyl-3-yl)-acetic acid] | < 6.00 | < 6.00 | – |
| CCN(Cc1cc(C(F)(F)F)ccc1-c1cc(CC(=O)O)ccc1OC)C(=O)C(C)(C)C [Compound 1-245, (2′-{[(2,2-Dimethyl-propionyl)-ethyl-amino]-methyl}-6-methoxy-4′-trifluoromethyl-biphenyl-3-yl)-acetic acid] | – | < 6.00 | – |
| CCN(Cc1cc(C(F)(F)F)ccc1-c1cc(CC(=O)O)ccc1OC)C(=O)NCc1ccc(O)cc1 [Compound 1-252, {2′-[1-Ethyl-3-(4-hydroxy-benzyl)-ureidomethyl]-6-methoxy-4′-trifluoromethyl-biphenyl-3-yl}-acetic acid] | – | > 6.52 | – |
| CCN(Cc1cc(C(F)(F)F)ccc1-c1cc(CC(=O)O)ccc1OC)C(=O)NCc1ccccc1O [Compound 1-253, {2′-[1-Ethyl-3-(2-hydroxy-benzyl)-ureidomethyl]-6-methoxy-4′-trifluoromethyl-biphenyl-3-yl}-acetic acid] | – | > 6.52 | – |
| CCN(Cc1cc(C(F)(F)F)ccc1-c1cc(CC(=O)O)ccc1OC)C(=O)NCc1cccc(O)c1 [Compound 1-257, {2′-[1-Ethyl-3-(3-hydroxy-benzyl)-ureidomethyl]-6-methoxy-4′-trifluoromethyl-biphenyl-3-yl}-acetic acid] | – | > 6.52 | – |

Continued, in another order:

| pIC50 (human DP1 receptor) | pIC50 (human DP2 receptor; [1]) | SMILES | pIC50 (human DP2 receptor) |
| --- | --- | --- | --- |
| 6.00 to 6.52 | > 6.52 | CCN(Cc1cc(C(F)(F)F)ccc1-c1cccc(CC(=O)O)c1)C(=O)OCc1ccccc1 [Compound 1-143, {2′-[(Benzyloxycarbonyl-ethyl-amino)-methyl]-4′-trifluoromethyl-biphenyl-3-yl}-acetic acid] | – |
| < 6.00 | > 6.52 | CCN(Cc1cc(C(F)(F)F)ccc1-c1cc(CC(=O)O)ccc1OC)C(=O)NCc1ccc(Cl)c(Cl)c1 [Compound 1-152, {2′-[3-(3,4-Dichloro-benzyl)-1-ethyl-ureidomethyl]-6-methoxy-4′-trifluoromethyl-biphenyl-3-yl}-acetic acid] | – |
| < 6.00 | > 6.52 | CCN(Cc1cc(NC(C)=O)ccc1-c1cc(CC(=O)O)ccc1OC)C(=O)OCc1ccccc1 [Compound 1-153, {4′-Acetylamino-2′-[(benzyloxycarbonyl-ethyl-amino)-methyl]-6-methoxy-biphenyl-3-yl}-acetic acid] | – |
| < 6.00 | > 6.52 | CCN(Cc1cc(NS(C)(=O)=O)ccc1-c1cc(CC(=O)O)ccc1OC)C(=O)OCc1ccccc1 [Compound 1-155, {2′-[(Benzyloxycarbonyl-ethyl-amino)-methyl]-4′-methanesulfonylamino-6-methoxy-biphenyl-3-yl}-acetic acid] | – |
| – | > 6.52 | CCN(Cc1cc(C(F)(F)F)ccc1-c1cc(CC(=O)O)ccc1OC)C(=O)C1CCC1 [Compound 1-206, {2′-[(Cyclobutanecarbonyl-ethyl-amino)-methyl]-6-methoxy-4′-trifluoromethyl-biphenyl-3-yl}-acetic acid] | – |
| – | > 6.52 | CCN(Cc1cc(S(C)(=O)=O)ccc1-c1cc(CC(=O)O)ccc1OC)C(=O)OCc1ccccc1 [Compound 1-215, {2′-[(Benzyloxycarbonyl-ethyl-amino)-methyl]-4′-methanesulfonyl-6-methoxy-biphenyl-3-yl}-acetic acid] | – |
| – | > 6.52 | CCN(Cc1cc(C(C)(C)O)ccc1-c1cc(CC(=O)O)ccc1OC)C(=O)OCc1ccccc1 [Compound 1-216, [2′-[(Benzyloxycarbonyl-ethyl-amino)-methyl]-4′-(1-hydroxy-1-methyl-ethyl)-6-methoxy-biphenyl-3-yl]-acetic acid] | – |
| – | > 6.52 | CCN(Cc1cc(C(=O)O)ccc1-c1cc(CC(=O)O)ccc1OC)C(=O)OCc1ccccc1 [Compound 1-226, 2-[(Benzyloxycarbonyl-ethyl-amino)-methyl]-5′-carboxymethyl-2′-methoxy-biphenyl-4-carboxylic acid] | – |
| – | > 6.52 | CCN(Cc1cc(SC)ccc1-c1cc(CC(=O)O)ccc1OC)C(=O)C1CC1 [Compound 1-241, {2′-[(Cyclopropanecarbonyl-ethyl-amino)-methyl]-6-methoxy-4′-methylsulfanyl-biphenyl-3-yl}-acetic acid] | – |
| – | > 6.52 | CCN(Cc1cc(C(F)(F)F)ccc1-c1cccc(CC(=O)O)c1)C(=O)C1CC1 [Compound 1-244, {2′-[(Cyclopropanecarbonyl-ethyl-amino)-methyl]-4′-trifluoromethyl-biphenyl-3-yl}-acetic acid] | – |
| – | > 6.52 | CCN(Cc1cc(Br)ccc1-c1cc(CC(=O)O)ccc1OC)C(=O)C1CC1 [Compound 1-247, {4′-Bromo-2′-[(cyclopropanecarbonyl-ethyl-amino)-methyl]-6-methoxy-biphenyl-3-yl}-acetic acid] | – |
